Test results from article PMC11775380, “Discovery of Novel Nav1.7-Selective Inhibitors with the 1H-Indole-3-Propionamide Scaffold for Effective Pain Relief” (Research, 2025).

How the values were obtained:
Format in all cases: cell-based
[1] = tested on: native K+ current (Kv channels) in DRG neurons; assay: Voltage-clamp recording of native K+ current in DRG neurons; conditions: 10 μM; mouse DRG neurons
Description: To investigate the mechanism of action of WN2-R and facilitate animal model experiments, we used voltage-clamp recording to test the effects of WN2-R on the native Na^+-, K^+-, and Ca^2+-mediated currents in DRG neurons. […] Furthermore, the effects of WN2-R on membrane excitability were examined in small (<30 μm) DRG neurons from mice using current-clamp recordings.
DRG isolation and culture were performed according to our previous report. Briefly, C57BL/6 mice (weight 18 to 20 g, 6 to 8 weeks) were euthanized via cervical dislocation under anesthesia. Lumbar DRGs were isolated from the L4 to L5 segments of the lumbar spinal cord. The DRG neurons were subsequently dissociated through enzymatic digestion with collagenase (0.32 mg/ml) and trypsin (0.15 mg/ml) at 37 °C for 30 min, with intermittent shaking. After centrifugation at 800 rpm for 5 min at room temperature, the cells were seeded onto poly-L-lysine-coated coverslips and cultured in DMEM (Gibco) supplemented with 10% fetal bovine serum (Gibco). […]
For recording Nav currents of DRG neurons, the bath solution contains (in mM) 30 NaCl, 1 MgCl2, 1.8 CaCl2, 5 CsCl, 5 KCl, 25 D-glucose, 5 HEPES, 0.1 CdCl2, and TEA-Cl (pH 7.4 with NaOH), and the pipette solution contains (in mM) 135 CsCl, 10 NaCl, and 5 HEPES (pH 7.4 with CsOH). The Nav current program is recorded following the above method. […]

hNav1.2 = target: T1, hNav1.2 (Homo sapiens, UniProt Q99250); assay: Subtype selectivity, patch clamp; conditions: 1 μM
T1 construct: expressed in transfected cells; host or cells: HEK293T
Description: (§1) VGSC inhibitors required credible subtype selectivity to void side effects caused by binding to nontarget subtypes. At a concentration of 1 μM, the inhibitory rates of WN2-R on hNav1.2, hNav1.3, hNav1.4, hNav1.5, mNav1.6, and hNav1.8 were determined (n = 3 to 6, Fig. 7A). […] To further evaluate the drug safety profile, high-dose acute toxicity experiments were conducted. Mice were administered a high dose of 30 mg/kg WN2-R through i.p. administration. The rotarod test, forced-swim test, and open field test were used to explore the effect of high-dose WN2-R on the motor ability of mice (n = 4). The rotarod test evaluated the drug's effect on motor coordination, the forced-swim test examined its impact on the overall motor system, and the open field test assessed the drug's influence on the motor and nervous systems.
(§2) Human embryonic kidney (HEK) 293T (ATCC CRL-3216) and ND7/23 cells (National Collection of Authenticated Cell Cultures SCSP-5026) were cultured under standard conditions (5% CO2, 37 °C) in Dulbecco’s modified Eagle’s medium (DMEM) containing 10% fetal bovine serum and 1% penicillin-streptomycin solution(all from Gibco, Thermo Fisher Scientific, Waltham, MA, USA). When the cells reached 70% to 90% confluence, human Nav1.2 (hNav1.2), human Nav1.3 (hNav1.3), human Nav1.4 (hNav1.4), human Nav1.5 (hNav1.5), and mouse Nav1.6 (mNav1.6) channel plasmids were cotransfected with enhanced green fluorescent protein (eGFP) into HEK293T cells. Additionally, plasmids expressing β1 and β2 subunits tagged with eGFP were cotransfected with the human Nav1.7 (hNav1.7) channel into HEK293T cells. Human Nav1.8 (hNav1.8) was transiently transfected into ND7/23 cells, along with eGFP, using Lipofectamine 2000 (Invitrogen), adhering strictly to the manufacturer’s protocol. For manual patch-clamp experiments, the cells were plated onto glass coverslips and used within 20 to 48 h of transfection.
(§3) Whole-cell patch-clamp recordings were conducted at 25 ± 2 °C, utilizing an EPC 10USB patch-clamp amplifier (HEKA Elektronik, Lambrecht, Germany). Pipettes, with access resistance between 2.0 and 3.0 MΩ, were pulled from borosilicate glass capillary tubes using a 2-step vertical microelectrode puller (PC-10, Narishige Group, Tokyo, Japan). Voltage-clamp recordings were obtained with PatchMaster software v2 × 73 (HEKA Elektronik) 5 min after establishing whole-cell configuration, sampled at 20 kHz, and filtered at 5 kHz. To minimize voltage errors, 80% series resistance compensation was applied. Pipettes were filled with 140 mM CsF, 10 mM NaCl, 1 mM EGTA, and 10 mM HEPES (pH=7.4, adjusted with CsOH). The external solution contained 140 mM NaCl, 2 mM CaCl2, 1 mM MgCl2, 5 mM KCl, 10 mM HEPES, and 10 mM glucose (pH=7.4, adjusted with NaOH). IC50 values were determined in HEK293T or ND7/23 cell lines by voltage clamping at −80 mV, followed by stepping to the V1/2 of inactivation for 8 s to facilitate compound binding.

hNav1.4 = target: T2, hNav1.4 (Homo sapiens, UniProt P35499); assay: Subtype selectivity, patch clamp; conditions: read-out: Inhibitory rate on Nav1.4
T2 construct: expressed in transfected cells; host or cells: HEK293T
Description: as §1, §2, §3

T1 sequence (Q99250 whole entry): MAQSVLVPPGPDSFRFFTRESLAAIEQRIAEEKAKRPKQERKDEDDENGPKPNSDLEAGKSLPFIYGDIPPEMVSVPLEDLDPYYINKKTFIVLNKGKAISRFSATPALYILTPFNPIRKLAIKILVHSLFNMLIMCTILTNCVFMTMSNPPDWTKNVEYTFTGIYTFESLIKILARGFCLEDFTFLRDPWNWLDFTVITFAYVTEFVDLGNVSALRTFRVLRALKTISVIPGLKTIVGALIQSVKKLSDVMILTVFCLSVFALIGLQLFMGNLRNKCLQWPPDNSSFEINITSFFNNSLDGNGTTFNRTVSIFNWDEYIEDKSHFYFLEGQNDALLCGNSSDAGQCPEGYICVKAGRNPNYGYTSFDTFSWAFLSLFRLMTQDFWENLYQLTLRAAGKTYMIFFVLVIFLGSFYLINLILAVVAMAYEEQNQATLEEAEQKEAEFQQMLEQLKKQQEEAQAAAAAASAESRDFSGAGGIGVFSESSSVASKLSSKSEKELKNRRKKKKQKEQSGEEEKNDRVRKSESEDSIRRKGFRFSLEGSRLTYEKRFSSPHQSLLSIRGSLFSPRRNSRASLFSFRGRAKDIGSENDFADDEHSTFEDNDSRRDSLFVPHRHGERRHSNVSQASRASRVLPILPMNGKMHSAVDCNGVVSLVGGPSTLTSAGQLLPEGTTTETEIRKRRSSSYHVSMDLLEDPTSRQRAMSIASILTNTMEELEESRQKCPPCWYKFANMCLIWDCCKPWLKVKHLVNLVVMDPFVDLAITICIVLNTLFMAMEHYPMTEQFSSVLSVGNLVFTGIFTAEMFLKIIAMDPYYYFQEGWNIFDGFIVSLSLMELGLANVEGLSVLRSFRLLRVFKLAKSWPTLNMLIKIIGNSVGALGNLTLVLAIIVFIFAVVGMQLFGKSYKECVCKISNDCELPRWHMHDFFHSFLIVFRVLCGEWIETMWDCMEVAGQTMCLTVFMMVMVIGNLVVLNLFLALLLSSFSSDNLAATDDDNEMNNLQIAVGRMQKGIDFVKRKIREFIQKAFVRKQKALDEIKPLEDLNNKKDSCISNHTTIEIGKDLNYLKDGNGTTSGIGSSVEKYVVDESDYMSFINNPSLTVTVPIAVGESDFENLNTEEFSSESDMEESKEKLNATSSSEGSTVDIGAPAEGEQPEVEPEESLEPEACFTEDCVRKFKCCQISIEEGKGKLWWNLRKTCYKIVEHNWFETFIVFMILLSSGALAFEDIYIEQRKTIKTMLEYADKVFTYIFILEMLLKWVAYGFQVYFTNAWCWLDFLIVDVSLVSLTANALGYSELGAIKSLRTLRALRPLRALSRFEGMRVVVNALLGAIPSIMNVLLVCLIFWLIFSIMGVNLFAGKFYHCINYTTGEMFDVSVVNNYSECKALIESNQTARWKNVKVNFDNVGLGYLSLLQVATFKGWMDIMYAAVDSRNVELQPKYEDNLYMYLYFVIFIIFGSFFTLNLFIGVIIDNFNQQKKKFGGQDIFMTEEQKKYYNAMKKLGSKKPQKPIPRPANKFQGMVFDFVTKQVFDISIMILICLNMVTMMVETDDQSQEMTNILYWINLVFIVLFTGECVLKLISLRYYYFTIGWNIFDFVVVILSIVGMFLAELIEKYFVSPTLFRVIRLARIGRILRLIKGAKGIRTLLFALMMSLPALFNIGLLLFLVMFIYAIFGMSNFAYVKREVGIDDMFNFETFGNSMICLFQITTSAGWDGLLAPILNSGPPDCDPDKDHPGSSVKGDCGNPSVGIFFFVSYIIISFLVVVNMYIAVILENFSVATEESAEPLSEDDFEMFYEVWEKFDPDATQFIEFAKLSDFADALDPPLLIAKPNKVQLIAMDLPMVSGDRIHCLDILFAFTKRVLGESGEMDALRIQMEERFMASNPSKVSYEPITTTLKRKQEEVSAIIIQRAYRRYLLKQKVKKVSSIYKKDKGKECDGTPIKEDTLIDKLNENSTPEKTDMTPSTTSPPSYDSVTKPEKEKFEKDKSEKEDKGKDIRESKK
T2 sequence (P35499 whole entry): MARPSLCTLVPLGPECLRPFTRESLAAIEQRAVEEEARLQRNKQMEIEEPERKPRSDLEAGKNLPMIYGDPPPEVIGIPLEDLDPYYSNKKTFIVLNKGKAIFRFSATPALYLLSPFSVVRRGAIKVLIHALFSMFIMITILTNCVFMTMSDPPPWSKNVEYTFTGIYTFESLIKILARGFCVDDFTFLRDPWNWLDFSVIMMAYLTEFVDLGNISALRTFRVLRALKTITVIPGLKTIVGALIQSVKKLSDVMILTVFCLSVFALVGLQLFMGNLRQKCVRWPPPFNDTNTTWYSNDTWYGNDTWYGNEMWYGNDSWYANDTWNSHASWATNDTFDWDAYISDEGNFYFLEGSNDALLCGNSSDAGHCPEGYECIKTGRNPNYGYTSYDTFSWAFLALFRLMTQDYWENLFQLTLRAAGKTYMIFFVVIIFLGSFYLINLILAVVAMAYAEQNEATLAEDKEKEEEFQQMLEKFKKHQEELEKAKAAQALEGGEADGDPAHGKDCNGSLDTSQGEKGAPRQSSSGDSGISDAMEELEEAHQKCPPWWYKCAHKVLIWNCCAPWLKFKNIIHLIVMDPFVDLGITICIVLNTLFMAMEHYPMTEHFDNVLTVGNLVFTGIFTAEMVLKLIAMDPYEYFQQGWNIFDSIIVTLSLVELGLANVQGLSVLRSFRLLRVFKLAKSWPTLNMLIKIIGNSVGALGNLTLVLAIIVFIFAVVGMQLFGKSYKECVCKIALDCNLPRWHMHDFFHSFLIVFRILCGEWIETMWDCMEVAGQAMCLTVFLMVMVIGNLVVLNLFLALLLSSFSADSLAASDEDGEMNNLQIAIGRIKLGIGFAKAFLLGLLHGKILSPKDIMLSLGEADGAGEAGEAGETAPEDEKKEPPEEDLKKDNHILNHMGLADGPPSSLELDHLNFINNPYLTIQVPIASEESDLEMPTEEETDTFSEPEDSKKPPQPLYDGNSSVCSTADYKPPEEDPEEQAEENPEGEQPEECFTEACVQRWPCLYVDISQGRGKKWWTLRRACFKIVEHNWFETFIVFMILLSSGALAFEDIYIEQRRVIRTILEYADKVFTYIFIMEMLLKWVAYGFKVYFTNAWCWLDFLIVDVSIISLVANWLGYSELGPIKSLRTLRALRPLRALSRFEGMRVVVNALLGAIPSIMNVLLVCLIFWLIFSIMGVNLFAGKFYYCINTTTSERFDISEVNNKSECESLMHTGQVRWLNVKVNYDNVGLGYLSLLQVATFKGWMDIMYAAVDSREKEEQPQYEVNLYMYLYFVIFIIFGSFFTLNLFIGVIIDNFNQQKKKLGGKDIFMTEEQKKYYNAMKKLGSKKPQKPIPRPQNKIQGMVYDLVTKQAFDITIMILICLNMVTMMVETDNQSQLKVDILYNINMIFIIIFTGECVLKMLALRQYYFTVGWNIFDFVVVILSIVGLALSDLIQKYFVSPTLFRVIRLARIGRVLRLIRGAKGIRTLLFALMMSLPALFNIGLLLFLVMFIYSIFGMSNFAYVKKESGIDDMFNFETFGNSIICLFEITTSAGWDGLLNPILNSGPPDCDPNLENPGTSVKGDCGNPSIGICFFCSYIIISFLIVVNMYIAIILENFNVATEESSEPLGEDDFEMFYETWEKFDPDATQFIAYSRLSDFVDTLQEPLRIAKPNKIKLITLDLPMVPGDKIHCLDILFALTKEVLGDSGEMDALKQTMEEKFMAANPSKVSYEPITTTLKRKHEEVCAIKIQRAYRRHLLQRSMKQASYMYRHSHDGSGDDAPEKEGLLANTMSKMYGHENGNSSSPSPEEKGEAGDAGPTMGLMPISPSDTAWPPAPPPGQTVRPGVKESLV

Cc1ccc(Cn2cc([C@H](CC(=O)NCCN(C)C)c3ccc(F)cc3)c3ccccc32)cc1 [WN2-R]
Effect on native K+ current [1]: almost no effect
Inhibitory rate on hNav1.2 (hNav1.2): much lower than that on Nav1.7
inhibition at 1 µM (hNav1.4): 16.3%
